Test results taken from PubChem BioAssay (NCI).
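Dose response: 5 concentrations. Exposure: 48 h. Format: 96-well plates. Endpoint: linear interpolation; highest concentration if not reached. TGI marks complete inhibition of growth.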

Columns and labels:
Assay in all cases: growth of human tumour cells (NCI), 48 h
SNB-75 CNS = tested on: SNB-75 CNS
SR leukemia = tested on: SR leukemia
CCRF-CEM leukemia = tested on: CCRF-CEM leukemia
786-0 renal = tested on: 786-0 renal
RPMI-8226 leukemia = tested on: RPMI-8226 leukemia
SW-620 colon = tested on: SW-620 colon
CAKI-1 renal = tested on: CAKI-1 renal
HOP-92 NSCLC = tested on: HOP-92 NSCLC
SK-OV-3 ovarian = tested on: SK-OV-3 ovarian
ACHN renal = tested on: ACHN renal
A549 NSCLC = tested on: A549 NSCLC
MALME-3M melanoma = tested on: MALME-3M melanoma
HCT-116 colon = tested on: HCT-116 colon
UO-31 renal = tested on: UO-31 renal
COLO 205 colon = tested on: COLO 205 colon
SF-295 CNS = tested on: SF-295 CNS
PC-3 prostate = tested on: PC-3 prostate

Row | Structure (SMILES) | TGI (SNB-75 CNS) | TGI (SR leukemia) | TGI (CCRF-CEM leukemia) | TGI (786-0 renal) | TGI (RPMI-8226 leukemia) | TGI (SW-620 colon) | TGI (CAKI-1 renal) | TGI (HOP-92 NSCLC) | TGI (SK-OV-3 ovarian) | TGI (ACHN renal) | TGI (A549 NSCLC) | TGI (MALME-3M melanoma) | TGI (HCT-116 colon) | TGI (UO-31 renal) | TGI (COLO 205 colon) | TGI (SF-295 CNS) | TGI (PC-3 prostate)
1 | CC(C)(C)OC(=O)NC(CCC(=O)OCc1ccccc1)C(=O)NCCCO (stereo unspecified) | > 100 µM | > 100 µM | > 100 µM | > 100 µM | > 100 µM | > 100 µM | > 100 µM | > 100 µM | > 100 µM | > 100 µM | > 100 µM | > 100 µM | > 100 µM | > 100 µM | – | – | –
2 | O=C(c1ccccc1)N1OCCC1Nc1ccc(Br)cc1 (stereo unspecified) | > 10 µM | – | > 10 µM | > 10 µM | > 10 µM | > 10 µM | > 10 µM | – | > 10 µM | > 10 µM | > 10 µM | > 10 µM | > 10 µM | 8.81 µM | 4.33 µM | > 10 µM | > 10 µM
3 | C=CCc1ccccc1CC1(OCC)OC(=O)c2ccccc21 (stereo unspecified) | 53.1 µM | – | – | > 100 µM | > 100 µM | > 100 µM | > 100 µM | > 100 µM | > 100 µM | > 100 µM | > 100 µM | – | > 100 µM | > 100 µM | > 100 µM | > 100 µM | > 100 µM
4 | CC1=C(C(=O)N(C(C)C)C(C)C)CC(C(=O)N(C(C)C)C(C)C)=C(C)N1 | > 100 µM | – | > 100 µM | > 100 µM | > 100 µM | > 100 µM | > 100 µM | > 100 µM | > 100 µM | > 100 µM | > 100 µM | – | > 100 µM | > 100 µM | > 100 µM | > 100 µM | > 100 µM
5 | CC(C)C(Sc1nc(-c2ccccc2)c(-c2ccccc2)[nH]1)C(=O)NN (stereo unspecified) | > 100 µM | – | > 100 µM | > 100 µM | > 100 µM | > 100 µM | > 100 µM | > 100 µM | > 100 µM | > 100 µM | > 100 µM | > 100 µM | > 100 µM | > 100 µM | > 100 µM | > 100 µM | –
6 | NC(=O)C1Cc2cc3c(cc21)OCO3 (stereo unspecified) | > 100 µM | – | – | > 100 µM | – | – | > 100 µM | – | > 100 µM | > 100 µM | > 100 µM | > 100 µM | > 100 µM | > 100 µM | > 100 µM | > 100 µM | > 100 µM
7 | CC(C)=c1sc(=C(C)C)c2c1=NC(C)(C)N=2 | – | – | > 100 µM | > 100 µM | > 100 µM | > 100 µM | > 100 µM | – | > 100 µM | > 100 µM | > 100 µM | > 100 µM | > 100 µM | – | > 100 µM | > 100 µM | > 100 µM
8 | CSc1sc(=S)sc1C(=O)N(C)c1ccccc1 | 82.5 µM | > 100 µM | > 100 µM | > 100 µM | > 100 µM | > 100 µM | – | – | – | > 100 µM | > 100 µM | > 100 µM | > 100 µM | > 100 µM | > 100 µM | > 100 µM | –
9 | CCN(CC)c1c(-c2c(N(CC)CC)c(OC(C)=O)c3sccn3c2=O)c(=O)n2ccsc2c1OC(C)=O | 39.3 µM | – | > 100 µM | 90.1 µM | > 100 µM | > 100 µM | > 100 µM | > 100 µM | > 100 µM | > 100 µM | – | > 100 µM | > 100 µM | > 100 µM | > 100 µM | > 100 µM | > 100 µM
10 | NC1CC(Cl)c2c(Cl)sc(Cl)c21 (stereo unspecified) | > 100 µM | > 100 µM | > 100 µM | > 100 µM | – | > 100 µM | > 100 µM | > 100 µM | > 100 µM | > 100 µM | > 100 µM | > 100 µM | > 100 µM | > 100 µM | > 100 µM | > 100 µM | –
11 | CCCCCCCCCCCCCCCCOCC(CP(=O)([O-])OCC[n+]1ccccc1)OC (stereo unspecified) | 22.3 µM | 15.3 µM | 25.6 µM | 28.7 µM | 11.8 µM | 31.6 µM | 22.2 µM | 5.97 µM | 32.7 µM | – | 24.1 µM | 32.8 µM | 22.1 µM | 21.2 µM | 20.5 µM | 15.4 µM | –
12 | O=S(Nc1ccccc1)c1ccc(Cl)c(Cl)c1 (stereo unspecified) | – | > 100 µM | > 100 µM | > 100 µM | > 100 µM | > 100 µM | – | – | – | > 100 µM | > 100 µM | > 100 µM | > 100 µM | > 100 µM | > 100 µM | 50.1 µM | –
13 | Oc1cc(-c2ccc(Cl)cc2)cn2c1nc1ccccc12 | > 100 µM | – | – | > 100 µM | – | > 100 µM | > 100 µM | > 100 µM | > 100 µM | – | – | > 100 µM | > 100 µM | > 100 µM | > 100 µM | > 100 µM | > 100 µM
14 | O=C(O)CCc1cccc2c1oc1c(CCC(=O)O)cccc12 | > 100 µM | > 100 µM | > 100 µM | > 100 µM | > 100 µM | > 100 µM | > 100 µM | > 100 µM | > 100 µM | > 100 µM | > 100 µM | > 100 µM | > 100 µM | > 100 µM | > 100 µM | > 100 µM | –
15 | CN1C(=O)C(c2c[nH]c3ccccc23)N(C)C(=O)C1c1c[nH]c2ccccc12 (stereo unspecified) | 88.2 µM | – | > 100 µM | > 100 µM | – | > 100 µM | > 100 µM | > 100 µM | > 100 µM | > 100 µM | > 100 µM | > 100 µM | > 100 µM | > 100 µM | > 100 µM | > 100 µM | > 100 µM
